Measurements reported in article PMC6047675, “Neutral metalloaminopeptidases APN and MetAP2 as newly discovered anticancer molecular targets of actinomycin D and its simple analogs” (Oncotarget, 2018).
Read-outs that look alike come from different tables or passages of the source. Starred links: 1 amine or outer side, 2 acyl side, 3 side chain; linkers in the order of their positions; H or OH if unused. Positions of bridges follow the written chain, without caps; N, C: chain ends. Non-standard residues stand in square brackets, D forms with d. Residues, ends and D or L forms follow the SMILES beside them. Chains are numbered I, II in the order given. Actinocin(1to9) = Cc1c2oc3c(C)ccc(C(=O)[*:2])c3nc-2c(C(=O)[*:1])c(N)c1=O; Actinocin(9to1) = Cc1c2oc3c(C)ccc(C(=O)[*:1])c3nc-2c(C(=O)[*:2])c(N)c1=O; Pro(4-oxo) = O=C1CN[C@H](C(=O)O)C1; NMeV = CN[C@H](C(=O)O)C(C)C; Sar = CNCC(=O)O

What was measured:
[1] = target: T1, human methionine aminopeptidase type 2 (HsMetAP2) (Homo sapiens, UniProt P50579); assay: Inhibition of recombinant human MetAP2, fluorogenic substrate Met-AMC; format: biochemical; conditions: for mechanism of inhibition of HsMetAP2: from Lineweaver-Burk and Dixon plots
T1 construct: purchased R&D Systems
Description: (§1) Actinomycin D was purchased as a lyophilized powder from Sigma-Aldrich (Poznan, Poland), Actinomycin X2 was purchased form Adipogen (Liestal, Switzerland). Actinocine and Questiomycin A were synthesized according to a previously described procedure. Recombinant human APN and MetAP2 were purchased as a lyophilized powder from R&D Systems (Minneapolis, USA). Fluorogenic substrates Ala-AMC (L-alanine-4-methylcoumaryl-7-amide) and Met-AMC (L-methionine-4-methylcoumaryl-7-amide) were purchased from PeptaNova (Sandhausen, Germany). Spectrofluorometry was performed on a Spectra MAX Gemini EM fluorimeter (Molecular Devices, Sunnyvale, USA) in a 96-well plate format (Excitation = 355 nm, Emission = 460 nm). Calculations of the kinetic parameters were performed using the SoftMax Pro, GraphPad Prism and Microsoft Excel programs.
(§2) Recombinant human APN enzyme was dissolved in 50 mM Tris-HCl buffer (pH = 7.0) and used directly in the kinetic experiments. Recombinant human MetAP2 was obtained as a lyophilized powder from R&D Systems. The enzyme was dissolved in 100 mM Tris-maleate buffer containing 0.1 mM CoCl2, 100 mM NaCl and 0.075 % v/v albumin at pH = 7.5 and incubated for 30 minutes. After this activation, the enzyme was used directly in the kinetic experiments.
(§3) The inhibitors were screened against human APN and human MetAP2 at 37°C in the assay buffer as described above. For the steady-state measurements, the enzymes were preincubated for 30-60 min at 37°C with an inhibitor before adding the substrate (Ala-AMC, 40 μM for human APN or Met-AMC and 50 μM for MetAP2) to the wells. For the initial state measurements, the enzymes were preincubated for 15-30 min at 37°C before adding the substrate and inhibitor to the wells. The following conditions were used: (1) total volume 100 μL, (2) eight different inhibitor concentrations, and (3) enzyme concentration of 0.3 nM for human APN and 1 nM for MetAP2. The release of the AMC fluorophore was monitored. The linear portion of the progress curve was used to calculate the velocity. hPhePCH2Phe for APN and ebselen for MetAP2 were used as a positive control. The inhibition mechanism was determined from the Lineweaver-Burk and Dixon plot (Figure 2B and 2D). The IC50 values were calculated from the reaction velocity to inhibitor concentration plot fitted to the equation log[I] vs. response. The Ki values were equal to the IC50 for non-competitive inhibitors and were calculated for competitive inhibitors using the following equation: Ki = (IC50-[E]/2)/ (1 + ([S]/Km)), where the IC50 is the concentration of the inhibitor that effected 50% inhibition, [S] and Km are the substrate concentration and Michaelis constant in the absence of inhibitor, respectively, and [E] is the concentration of the enzyme.

[2] = target: T2, human alanine aminopeptidase (HsAPN) (Homo sapiens, UniProt P15144); assay: Inhibition of recombinant human APN, fluorogenic substrate Ala-AMC; format: biochemical; conditions: for mechanism of inhibition of HsAPN: from Lineweaver-Burk and Dixon plots
T2 construct: purchased R&D Systems
Description: as §1, §2, §3

[3] = test system: human acute B- and T-lymphoblastic leukemia, cervix carcinoma and larynx carcinoma; set-up: method as in PMID 12431048; conditions: read-out: IC50 cytotoxicity; cited from earlier work
[4] = test system: human leukemia cell line HL-60; conditions: read-out: LC50 (lethal concentration for a half of population), cytotoxicity HL-60; cited from earlier work
[5] = TRIS buffer, 37°C, average with standard deviation, at least three experiments, read-out: IC50 HsMetAP
[6] = TRIS buffer, 37°C, calculated by Cheng-Prusoff equations for non-competitive and competitive inhibitors, average with standard deviation, at least three experiments, read-out: Ki HsMetAP
[7] = more effective than Actinomycin D/X2
[8] = TRIS buffer, 37°C, average with standard deviation, at least three experiments, read-out: IC50 HsAPN
[9] = TRIS buffer, 37°C, calculated by Cheng-Prusoff equations for non-competitive and competitive inhibitors, average with standard deviation, at least three experiments, read-out: Ki HsAPN

T2 sequence (P15144 whole entry): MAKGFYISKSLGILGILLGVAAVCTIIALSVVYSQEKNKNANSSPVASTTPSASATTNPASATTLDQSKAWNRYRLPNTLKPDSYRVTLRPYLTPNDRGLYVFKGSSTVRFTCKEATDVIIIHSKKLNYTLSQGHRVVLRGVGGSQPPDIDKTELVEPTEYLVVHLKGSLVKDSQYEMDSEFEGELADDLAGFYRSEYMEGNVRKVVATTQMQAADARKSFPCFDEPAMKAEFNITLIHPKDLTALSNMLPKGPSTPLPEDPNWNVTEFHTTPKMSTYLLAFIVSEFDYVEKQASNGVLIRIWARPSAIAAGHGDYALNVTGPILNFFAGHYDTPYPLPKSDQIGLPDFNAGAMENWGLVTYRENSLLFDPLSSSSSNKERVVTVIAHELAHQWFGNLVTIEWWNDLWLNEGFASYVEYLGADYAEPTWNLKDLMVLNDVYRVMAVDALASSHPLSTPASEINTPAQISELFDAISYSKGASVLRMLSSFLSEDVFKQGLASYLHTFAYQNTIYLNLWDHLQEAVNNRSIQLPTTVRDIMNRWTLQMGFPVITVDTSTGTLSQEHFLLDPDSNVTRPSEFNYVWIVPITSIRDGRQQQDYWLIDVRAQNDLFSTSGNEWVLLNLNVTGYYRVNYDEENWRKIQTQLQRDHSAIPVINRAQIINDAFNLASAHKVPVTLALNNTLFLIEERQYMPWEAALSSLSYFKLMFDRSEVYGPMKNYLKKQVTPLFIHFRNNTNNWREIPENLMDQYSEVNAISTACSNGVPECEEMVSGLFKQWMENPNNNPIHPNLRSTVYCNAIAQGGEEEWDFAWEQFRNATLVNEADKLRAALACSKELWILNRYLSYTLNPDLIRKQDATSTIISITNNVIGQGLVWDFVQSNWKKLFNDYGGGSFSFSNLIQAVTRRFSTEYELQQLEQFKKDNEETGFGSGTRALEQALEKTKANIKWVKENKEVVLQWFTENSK
T1 sequence (P50579 whole entry): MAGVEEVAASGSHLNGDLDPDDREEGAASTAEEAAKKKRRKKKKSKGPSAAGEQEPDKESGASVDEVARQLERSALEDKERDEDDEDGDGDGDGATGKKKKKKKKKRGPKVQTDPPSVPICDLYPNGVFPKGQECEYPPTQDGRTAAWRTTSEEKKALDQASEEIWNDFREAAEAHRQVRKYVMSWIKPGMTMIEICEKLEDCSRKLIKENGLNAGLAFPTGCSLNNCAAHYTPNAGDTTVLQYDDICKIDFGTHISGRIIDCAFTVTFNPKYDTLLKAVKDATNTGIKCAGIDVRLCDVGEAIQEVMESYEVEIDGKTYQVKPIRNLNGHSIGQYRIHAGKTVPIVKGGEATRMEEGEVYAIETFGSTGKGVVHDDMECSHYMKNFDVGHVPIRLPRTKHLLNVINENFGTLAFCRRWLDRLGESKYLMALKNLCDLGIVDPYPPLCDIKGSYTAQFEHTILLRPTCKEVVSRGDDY

Cc1c2oc3c(C)ccc(C(=O)O)c3nc-2c(C(=O)O)c(N)c1=O [Actinocin]
IC50 [1, 5]: 2.34 ± 0.62 µM
Ki [1, 6]: 2.04 ± 0.23 µM
mechanism of inhibition of HsMetAP2 [1]: competitive
effectiveness relative to Actinomycin D/X2, HsMetAP2 [1, 7]: four times as effective
IC50 [2, 8]: 7.25 ± 1.2 µM
Ki [2, 9]: 6.04 ± 0.51 µM
mechanism of inhibition of HsAPN [2]: competitive
effectiveness relative to Actinomycin D/X2, HsAPN [2, 7]: twice as effective

Cc1c2oc3c(C)ccc(C(=O)N[C@@H]4C(=O)N[C@H](C(C)C)C(=O)N5CCC[C@H]5C(=O)N(C)CC(=O)N(C)[C@@H](C(C)C)C(=O)O[C@@H]4C)c3nc-2c(C(=O)N[C@@H]2C(=O)N[C@H](C(C)C)C(=O)N3CCC[C@H]3C(=O)N(C)CC(=O)N(C)[C@@H](C(C)C)C(=O)O[C@@H]2C)c(N)c1=O [Actinomycin D] (I: T[dV]P[Sar][NMeV] / II: T[dV]P[Sar][NMeV]; ester I:1-I:C, II:1-II:C; linker I:N-II:N via Actinocin(9to1))
IC50 [3]: 0.001 to 0.008 µM
IC50 [1]: 7.37 ± 0.56 µM
Ki [1]: 7.37 ± 0.56 µM
mechanism of inhibition of HsMetAP2 [1]: non-competitive
IC50 [2]: 11.9 ± 1.1 µM
Ki [2]: 11.9 ± 1.1 µM
mechanism of inhibition of HsAPN [2]: non-competitive

Cc1c2oc3c(C)ccc(C(=O)N[C@@H]4C(=O)N[C@H](C(C)C)C(=O)N5CCC[C@H]5C(=O)N(C)CC(=O)N(C)[C@@H](C(C)C)C(=O)O[C@@H]4C)c3nc-2c(C(=O)N[C@@H]2C(=O)N[C@H](C(C)C)C(=O)N3CC(=O)C[C@H]3C(=O)N(C)CC(=O)N(C)[C@@H](C(C)C)C(=O)O[C@@H]2C)c(N)c1=O [Actinomycin X2, reference compound] (I: T[dV][Pro(4-oxo)][Sar][NMeV] / II: T[dV]P[Sar][NMeV]; ester I:1-I:C, II:1-II:C; linker I:N-II:N via Actinocin(1to9))
CC50 [4]: 0.008 µM
IC50 [1]: 8.33 ± 0.75 µM
Ki [1]: 8.33 ± 0.75 µM
mechanism of inhibition of HsMetAP2 [1]: non-competitive
IC50 [2]: 12.2 ± 1.4 µM
Ki [2]: 12.2 ± 1.4 µM
mechanism of inhibition of HsAPN [2]: non-competitive

Nc1cc2nc3ccccc3oc-2cc1=O [Questiomycin A]
IC50 [3]: 1 to 3 µM
IC50 [1, 5]: 34.9 ± 3.2 µM
Ki [1, 6]: 30.4 ± 3.2 µM
mechanism of inhibition of HsMetAP2 [1]: competitive
times less effective, HsMetAP2 ([1]; in contrast to Actinocin): 10 times
decrease in activity for HsMetAP2 compared to the lead compound ([1]; lead compound = Actinomycin D): five-fold
IC50 [2, 8]: 63 ± 3.2 µM
Ki [2, 9]: 52.5 ± 2.7 µM
mechanism of inhibition of HsAPN [2]: competitive
times less effective, HsAPN ([2]; in contrast to Actinocin): 10 times
decrease in activity for HsAPN compared to the lead compound ([2]; lead compound = Actinomycin D): five-fold
